Assay results: US7745413B2, “Collection of traceable compounds and uses thereof” (Centre National de la Recherche Scientifique (CNRS), priority 2004, dated 2010)

Molecular target: T1, GPR50-EGFP receptor (Homo sapiens, UniProt Q13585)
T1 construct: signal peptide (SP) of the pCEP4-SP-EGFP vector (N); expressed in transfected cells
Assay: Real-time measurement of energy transfer (FRET) between fluorescent ligand and GPR50-EGFP receptor on HEK 293 cells
Format: binding
Conditions: ligand at 500 nM; excitation 470 nm, fluorescence at 510 nm; FIG. 6
Source text: The binding of certain molecules was verified with the spectrofluorimeter (equipment previously described (see Example 1)).

T1 sequence (Q13585 9-617 limits assumed): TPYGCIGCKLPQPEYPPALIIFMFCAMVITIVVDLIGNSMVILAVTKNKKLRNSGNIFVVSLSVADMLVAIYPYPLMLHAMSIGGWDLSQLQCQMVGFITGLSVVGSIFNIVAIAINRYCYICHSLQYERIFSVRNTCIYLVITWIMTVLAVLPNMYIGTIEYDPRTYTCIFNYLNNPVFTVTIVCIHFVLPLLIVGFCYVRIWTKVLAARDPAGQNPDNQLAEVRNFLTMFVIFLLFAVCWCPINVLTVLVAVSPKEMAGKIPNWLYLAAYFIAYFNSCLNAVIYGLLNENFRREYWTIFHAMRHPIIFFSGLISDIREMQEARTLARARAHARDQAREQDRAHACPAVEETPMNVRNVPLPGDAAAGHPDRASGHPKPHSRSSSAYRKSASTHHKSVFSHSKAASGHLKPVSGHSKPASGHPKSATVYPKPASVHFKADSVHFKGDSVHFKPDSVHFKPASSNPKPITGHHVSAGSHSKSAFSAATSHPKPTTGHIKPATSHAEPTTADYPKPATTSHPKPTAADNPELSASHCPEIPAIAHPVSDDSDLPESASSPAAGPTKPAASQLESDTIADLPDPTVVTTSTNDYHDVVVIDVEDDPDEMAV

energy transfer: 2%
Structure (SMILES): CCN(CCN(CC)C(=O)C(Cc1c[nH]c2ccccc12)NC(=O)C(CCCCNS(=O)(=O)c1ccc2c(c1)S(=O)(=O)OC21c2ccc(N(CC)CC)cc2Oc2cc(N(CC)CC)ccc21)NC(=O)C1=CCCN(C)C1)Cc1ccccc1 (stereo not shown) [FG 229 F4]
